Several values for one entry are separate records, joined by “and”; a condition that tells them apart may be missing. Equal entries are not always repeated. Inconclusive results and toxic doses are left out.

This experiment relates to L1210 leukemia ip in BDF1 mice, survival T/C. Description: NCI In Vivo Anticancer Drug Screen. Data for tumor model L1210 Leukemia (intraperitoneal) in B6D2F1 (BDF1) mice. Conditions: endpoint: mean survival time, higher = longer survival. The gist of the method:
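Each compound was tested against a transplantable tumor grown in mice. The endpoint was survival, with treated animals benchmarked against vehicle controls as a simple ratio.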

Setting [1] is: dose: 100.0 mg/kg/injection, schedule: Q01DX009 (ip), vehicle: Klucel (hydroxypropylcellulose) (HPC).
The mark [2] stands for this setting: dose: 100.0 mg/kg/injection, schedule: Q04DX003 (ip), vehicle: Klucel (hydroxypropylcellulose) (HPC).
The mark [3] stands for this setting: dose: 200.0 mg/kg/injection, schedule: Q01DX009 (ip), vehicle: Klucel (hydroxypropylcellulose) (HPC).
[4] abbreviates: dose: 200.0 mg/kg/injection, schedule: Q04DX003 (ip), vehicle: Klucel (hydroxypropylcellulose) (HPC).
[5] abbreviates: dose: 400.0 mg/kg/injection, schedule: Q01DX009 (ip), vehicle: Klucel (hydroxypropylcellulose) (HPC).
[6] abbreviates: dose: 400.0 mg/kg/injection, schedule: Q04DX003 (ip), vehicle: Klucel (hydroxypropylcellulose) (HPC).
Setting [7] is: dose: 75.0 mg/kg/injection, schedule: Q01DX001 (ip), vehicle: saline.
Setting [8] is: dose: 100.0 mg/kg/injection, schedule: Q01DX001 (ip), vehicle: saline.
Where [9] appears, read: dose: 100.0 mg/kg/injection, schedule: Q01DX009 (ip), vehicle: saline.
Where [10] appears, read: dose: 200.0 mg/kg/injection, schedule: Q01DX001 (ip), vehicle: saline.
The mark [11] stands for this setting: dose: 200.0 mg/kg/injection, schedule: Q01DX009 (ip), vehicle: saline.
Setting [12] is: dose: 400.0 mg/kg/injection, schedule: Q01DX001 (ip), vehicle: saline.
[13] abbreviates: dose: 400.0 mg/kg/injection, schedule: Q01DX009 (ip), vehicle: saline.
[14] abbreviates: dose: 100.0 mg/kg/injection, schedule: Q01DX001 (ip), vehicle: Klucel (hydroxypropylcellulose) (HPC).
Setting [15] is: dose: 200.0 mg/kg/injection, schedule: Q01DX001 (ip), vehicle: Klucel (hydroxypropylcellulose) (HPC).

For `COC(=O)CCCCC(=O)OCC#CC#CCOC(=O)CCCCC(=O)OC`, the T/C was 95 % of control under setting [1]; 91 % of control under setting [2]; 104 % of control under setting [3]; 92 % of control under setting [4]; 98 % of control under setting [5]; 92 % of control under setting [6].
Take `CCOC(=O)C1=Cc2ccccc2OC1`: the T/C is, setting by setting: under setting [7], 94 % of control; (dose: 150.0 mg/kg/injection, schedule: Q01DX001 (ip), vehicle: saline) 96 % of control; (dose: 300.0 mg/kg/injection, schedule: Q01DX001 (ip), vehicle: saline) 91 % of control.
For the compound `CCN(CC)C(=S)[S][Sb]([S]C(=S)N(CC)CC)[c]1ccccc1`, the T/C reads like this: (dose: 100.0 mg/kg/injection, schedule: Q01DX001 (ip), vehicle: other) 112 % of control; (dose: 200.0 mg/kg/injection, schedule: Q01DX001 (ip), vehicle: other) 89 % of control.
Consider `O=P(O)(O)OP(=O)(O)OP(=O)(O)OCC1OC(N2C=NC3C4NC=CN4CNC32)C(O)C1O` (stereo not drawn), for which the T/C was 97 % of control (dose: 3.13 mg/kg/injection, schedule: Q03HX024 (ip), vehicle: saline); 93 % of control (dose: 6.25 mg/kg/injection, schedule: Q03HX024 (ip), vehicle: saline); 95 % of control (dose: 7.5 mg/kg/injection, schedule: Q03HX024 (ip), vehicle: saline); 93 % of control (dose: 15.0 mg/kg/injection, schedule: Q03HX024 (ip), vehicle: saline).
With `CC(C)(SCC(N)C(=O)O)C(N)C(=O)O` (stereo not drawn), the T/C under setting [8] was 95 % of control; the T/C under setting [9] was 103 % of control; the T/C under setting [10] was 90 % of control; the T/C under setting [11] is 94 % of control; the T/C under setting [12] is 87 % of control; the T/C under setting [13] was 102 % of control.
With `COc1ccc2c(c1)CCC1=C2CCC2(C)C(=O)OC(=O)C12` (stereo not drawn), the T/C runs as follows: under setting [1], 103 % of control; under setting [2], 102 % of control; under setting [3], 97 % of control; under setting [4], 93 % of control; under setting [5], 101 % of control; under setting [6], 111 % of control.
In the case of `CC(F)C1CCCC(F)C1` (stereo not drawn), the T/C under setting [8] is 103 % of control, the T/C under setting [10] is 100 % of control and the T/C under setting [12] was 105 % of control.
For `CC(=O)c1ccc(N=NC2C(=O)N(c3ccccc3)N=C2C)cc1` (stereo not drawn), the T/C was 96 % of control under setting [8], 94 % of control under setting [10] and 102 % of control under setting [12].
On to `COC(=O)/C=C(/Nc1cc(Cl)cc(Cl)c1)C(=O)OC`, for which the T/C is, setting by setting: under setting [8], 95 % of control; (dose: 100.0 mg/kg/injection, schedule: Q04DX003 (ip), vehicle: other) 86 % of control; under setting [10], 98 % of control; under setting [12], 90 % of control; (dose: 400.0 mg/kg/injection, schedule: Q04DX003 (ip), vehicle: other) 104 % of control.
Turning to `CCCCNC(=O)N(C1CCCCC1)C1CCCCC1`, the T/C under setting [1] is 103 % of control, the T/C under setting [3] was 92 % of control and the T/C under setting [5] was 92 % of control.
On to `Cc1ccnc(NS(=O)(=O)c2ccc(N=Nc3ccc(N)nc3N)cc2)n1`, for which the T/C runs as follows: under setting [8], 100 % of control; under setting [10], 102 % of control; under setting [12], 100 % of control.
Take `CCN(CC)N=Nc1ccccc1-c1nc(N)nc(N)n1`: the T/C is, setting by setting: under setting [2], 95 % of control; under setting [4], 108 % of control.
Consider `CCCC(=O)OCC1OC(n2cnc3c(=S)nc(N)[nH]c32)C(OC(=O)CCC)C1OC(=O)CCC` (stereo not drawn), for which the T/C is, setting by setting: (dose: 1.0 mg/kg/injection, schedule: Q01DX Z (ip), vehicle: carboxymethylcellulose (CMC)) 109 % of control; (dose: 1.5 mg/kg/injection, schedule: Q01DX Z (ip), vehicle: carboxymethylcellulose (CMC)) 117 % of control; (dose: 2.0 mg/kg/injection, schedule: Q01DX Z (ip), vehicle: carboxymethylcellulose (CMC)) 112 % of control; (dose: 2.3 mg/kg/injection, schedule: Q01DX Z (ip), vehicle: carboxymethylcellulose (CMC)) 124 % of control; (dose: 3.0 mg/kg/injection, schedule: Q01DX Z (ip), vehicle: carboxymethylcellulose (CMC)) 117 % of control; (dose: 5.0 mg/kg/injection, schedule: Q01DX Z (ip), vehicle: carboxymethylcellulose (CMC)) 154 % of control. Moreover, the T/C reads like this: (dose: 9.7 mg/kg/injection, schedule: Q01DX Z (oral), vehicle: carboxymethylcellulose (CMC)) 106 % of control; (dose: 17.0 mg/kg/injection, schedule: Q01DX Z (ip), vehicle: carboxymethylcellulose (CMC)) 157 % of control and 159 % of control; (dose: 25.0 mg/kg/injection, schedule: Q01DX Z (ip), vehicle: carboxymethylcellulose (CMC)) 152 % of control; (dose: 27.0 mg/kg/injection, schedule: Q01DX Z (oral), vehicle: carboxymethylcellulose (CMC)) 115 % of control; (dose: 37.0 mg/kg/injection, schedule: Q01DX Z (ip), vehicle: carboxymethylcellulose (CMC)) 112 % of control and 118 % of control; (dose: 125.0 mg/kg/injection, schedule: Q01DX Z (oral), vehicle: carboxymethylcellulose (CMC)) 119 % of control.
`OCC1OC(Sc2ncc3cnccn23)C(O)C(O)C1O` (stereo not drawn): the T/C was 100 % of control (dose: 100.0 mg/kg/injection, schedule: Q01DX005 (ip), vehicle: saline) and 100 % of control (dose: 200.0 mg/kg/injection, schedule: Q01DX005 (ip), vehicle: saline).
Regarding `Cc1cc2cc3n(c2nn1)N=CCC3`, the T/C (dose: 100.0 mg/kg/injection, schedule: Q04DX002 (ip), vehicle: saline) was 106 % of control and the T/C (dose: 200.0 mg/kg/injection, schedule: Q04DX002 (ip), vehicle: saline) is 103 % of control.
Consider `COc1ccc(NC(=O)Nc2ccccc2C(N)=O)cc1`, for which the T/C runs as follows: (dose: 50.0 mg/kg/injection, schedule: Q01DX009 (ip), vehicle: Klucel (hydroxypropylcellulose) (HPC)) 93 % of control; under setting [1], 93 % of control; under setting [3], 96 % of control.
For `O=[N+]([O-])c1ccccc1C1ON1C1CCCCC1` (stereo not drawn), the T/C was 97 % of control under setting [8], 97 % of control under setting [10] and 90 % of control under setting [12].
Consider `Cc1ccccc1-n1c(O)c(N=Nc2ccc(Br)cc2)c(=O)n(-c2ccccc2)c1=S`, for which the T/C was 94 % of control under setting [14]; 94 % of control under setting [15]; 91 % of control (dose: 400.0 mg/kg/injection, schedule: Q01DX001 (ip), vehicle: Klucel (hydroxypropylcellulose) (HPC)).
For `N#Cc1ccc[n+](CCc2c[nH]c3ccccc23)c1`, the T/C under setting [7] is 102 % of control.
Regarding `CC1(C)CC(N=Cc2ccccc2O)CC(C)(C)N1O.CC1(C)CC(N=Cc2ccccc2O)CC(C)(C)N1O.[Cu]`, the T/C was 89 % of control (dose: 12.5 mg/kg/injection, schedule: Q04DX003 (ip), vehicle: saline); 101 % of control (dose: 25.0 mg/kg/injection, schedule: Q04DX003 (ip), vehicle: saline); 101 % of control (dose: 50.0 mg/kg/injection, schedule: Q04DX003 (ip), vehicle: saline).
As to `O=[N+]([O-])c1cccc([N+](=O)[O-])c1Cl`, the T/C reads like this: (dose: 100.0 mg/kg/injection, schedule: Q01DX001 (ip), vehicle: carboxymethylcellulose (CMC)) 114 % of control; (dose: 200.0 mg/kg/injection, schedule: Q01DX001 (ip), vehicle: carboxymethylcellulose (CMC)) 108 % of control; (dose: 400.0 mg/kg/injection, schedule: Q01DX001 (ip), vehicle: carboxymethylcellulose (CMC)) 108 % of control.
Regarding `Cc1ccc(S(=O)(=O)OC2(C(=O)c3ccccc3)CC3CCC2C3)cc1` (stereo not drawn), the T/C was 93 % of control (dose: 50.0 mg/kg/injection, schedule: Q01DX001 (ip), vehicle: Klucel (hydroxypropylcellulose) (HPC)); 96 % of control under setting [14]; 94 % of control under setting [15].
Regarding `CC(O)(c1ccc(Br)cc1)C(c1ccccc1)c1ccccn1` (stereo not drawn), the T/C was 103 % of control (dose: 50.0 mg/kg/injection, schedule: Q01DX009 (ip), vehicle: saline); 94 % of control under setting [9]; 110 % of control (dose: 100.0 mg/kg/injection, schedule: Q04DX003 (ip), vehicle: saline); 94 % of control under setting [11]; 103 % of control (dose: 200.0 mg/kg/injection, schedule: Q04DX003 (ip), vehicle: saline); 101 % of control under setting [13]. Moreover, the T/C (dose: 400.0 mg/kg/injection, schedule: Q04DX003 (ip), vehicle: saline) was 110 % of control.
